Two compounds from patent US20240285776A1, “SMALL MOLECULE-BASED BI-SPECIFIC IMMUNE CELL TETHERS AND THEIR USE IN THE TREATMENT OF ENVELOPED VIRUS INFECTION” (PURDUE RESEARCH FOUNDATION, priority 2021, published 2024) can be followed below.

The subject of test [1] is Influenza A Puerto Rico8/1934 (H1N1) virus. It is filed as in vivo, BALB/C mice.
The subject of test [2] is influenza infection. Nature of the test: Treatment of FRβ knockout mice following influenza infection. Type of test: in vivo, folate receptor beta (FRβ) knockout mice. The conditions noted are these: FRβ knockout mice treated following influenza infection.
The test system of test [3] is Influenza A H1N1/PR8/1932 virus. Also noted: species or system BALB/C mice. The conditions noted are these: mouse, in vivo.
Test [4] relates to Influenza A Puerto Rico/8/1934 (H1N1) virus. Type of test: in vivo, BALB/C mice. The conditions noted are these: for weight-loss phenomenon: 1.5 μmol/kg once daily for five consecutive days, linear PEG linkers compared to the DBCO-containing linker; for survival rate at the end of the experiment: mouse, in vivo.

`CC(=O)N[C@H]1[C@H]([C@H](OC(=O)NCCOCCOCCOCCOCCOCCOCCNC(=O)CC[C@H](NC(=O)c2ccc(NCc3cnc4nc(N)[nH]c(=O)c4n3)cc2)C(=O)O)[C@H](O)CO)OC(C(=O)O)=C[C@@H]1NC(=N)N` [Compound 10]: the “dose response of survival rate” value in test [1] ([…], 1.5, 0.5 and 0.17 μmol/kg once daily for five consecutive days) is “increased with increasing dose”. For the same compound, the survival rate in test [1] (mouse, in vivo) is reported as 100%. Moreover, in test [2], the “survival at the end of the experiment” value is listed as “None of the mice survived”. In test [3], the “body weight over time” value is “did not lose any body weight” and the “survival at the end of two weeks long experiment” value is on record as “both the mice survived”. In test [4], the weight-loss phenomenon result is “more pronounced” and the “survival rate at the end of the experiment” value is 90%.

Take `CC(=O)N[C@H]1[C@H]([C@H](OC(=O)NCCOCCOCCOCCOCCOCCOCCOCCOCCOCCOCCOCCNC(=O)CC[C@H](NC(=O)c2ccc(NCc3cnc4nc(N)[nH]c(=O)c4n3)cc2)C(=O)O)[C@H](O)CO)OC(C(=O)O)=C[C@@H]1NC(=N)N` [zan-PEG11-folate]: in test [4], the weight-loss phenomenon result is “more pronounced” and the “survival rate at the end of the experiment” value is 100%.
